Columns and labels:
[1] = tested on: Genomic DNA isolated from A549 cell line; experiment: DNA titration (UV-Vis absorption spectra); assay type: binding, human; conditions: 0.5, 5 and 50 µM, 15 min, room temp.
Protocol: Genomic DNA was isolated from A549 cell line using a commercially available kit (Extractme Genomic DNA Kit, Blirt, Gdansk, Poland) following the manufacturer’s protocol. The concentration and purity of DNA were measured by BioTek Synergy HT Microplate Reader (BioTek Instruments, Winooski, VT, USA). Genomic DNA in the amount of 20 µg was incubated with complex 2b for 15 min at room temp. at concentrations 0.5, 5, and 50 µM in a final volume of 2 ml. Next UV–Vis absorbance spectra (240–300 nm) was measured by UV–Vis JASCO V-630 spectrophotometer (JASCO, Japan).

A549 cells [2] = experiment: Alkaline comet assay, A549 cells; assay type: cell-based, human; conditions: 2 h, 50 μM
Protocol: (§1) Selected iron(II) complexes were added to the suspension of the cells to give final concentrations of 1, 5, 10, 25 and 50 μM. HL-60 and A549 cells were incubated with the complexes for 2 h at 37 °C. The comet assay was performed under alkaline conditions according to the procedure of Tokarz et al.[45]. […] Next, the cells were lysed for 1 h at 4 °C in a buffer containing 2.5 M NaCl, 0.1 M EDTA, 10 mM Tris, 1% Triton X-100, pH 10. Following the lysis, the slides were placed in an electrophoresis unit. DNA was allowed to unwind for 20 min in the solution containing 300 mM NaOH and 1 mM EDTA, pH > 13. […] After separation, the slides were washed in water, drained, stained with 2 μg/ml DAPI and covered with cover slips. As a prevention from additional DNA damage, the procedure described above was conducted under limited light or in the dark. Each experiment included the positive control—cells incubated with H2O2 at 20 µM for 15 min on ice (data not shown).
(§2) The comets obtained after single cell gel electrophoresis were analysed in the following manner. […] Hundred images of singular comets were randomly selected from each sample and the mean value of DNA in comet tail was taken as an index of DNA damage (expressed in percent).

HL-60 cells [3] = experiment: Alkaline comet assay, HL-60 cells; assay type: cell-based, human
Protocol: as §1, §2

PBM cells = experiment: Cell viability resazurin assay, PBM cells; assay type: cell-based, human; conditions: for viability of PBM cells relative to control: ± SD
Outline: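 Human PBM cells isolated from healthy-donor buffy coats by density gradient, seeded at 5 × 10^4 per well in RPMI 1640 and exposed to iron(II) complexes at 0.5–250 μM for 2 h and 24 h at 37 °C. Resazurin added for 2 h and fluorescence read at 530/590 nm; IC50 from percentage of control, octuplicate.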

A549 cells [4] = experiment: Cell viability resazurin assay, A549 cells; assay type: cell-based, human; conditions: for viability of A549 cells relative to control: ± SD
Outline: (§3)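 A549 cells (5 × 10^3/well, adhered 24 h) or HL-60 cells (1 × 10^4/well) exposed to iron(II) complexes at 0.5–250 μM for 2 h and 24 h at 37 °C. Resazurin then added for 2 h; fluorescence (ex 530, em 590 nm) expressed as percent of control, IC50 calculated, octuplicate.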

HL-60 cells [5] = experiment: Cell viability resazurin assay, HL-60 cells; assay type: cell-based, human; conditions: for viability of HL-60 cells relative to control: ± SD
Outline: as §3

O=C1C=CC(=O)[N-]1.[C-]#[O+].[Fe+2].c1cc[cH-]c1.c1coc(P(c2ccco2)c2ccco2)c1 [2b, CpFe(CO)(P(Fu)3)(η^1-N-maleimidato)]
interaction with DNA (UV-Vis spectroscopic titration) [1]: does not interact in an intercalative manner with DNA | percentage of DNA damage in tail (alkaline comet assay) (A549 cells [2]): about 2% | DNA damage in HL-60 cells (alkaline comet assay), in words (HL-60 cells [3]; 2 h incubation, 1-50 μM tested): induced DNA damage | DNA in tail (alkaline comet assay) (HL-60 cells [3]; HL-60 cells, 2 h, 50 μM): 6% | viability of PBM cells relative to control (PBM cells; 2 h incubation, 0.5 µM): 98.07 ± 0.32% | viability of PBM cells relative to control (PBM cells; 2 h incubation, 1 µM): 97.62 ± 0.66% | viability of PBM cells relative to control (PBM cells; 2 h incubation, 2.5 µM): 96.06 ± 2.38% | viability of PBM cells relative to control (PBM cells; 2 h incubation, 5 µM): 97 ± 1.29% | viability of PBM cells relative to control (PBM cells; 2 h incubation, 10 µM): 96.53 ± 1.24% | viability of PBM cells relative to control (PBM cells; 2 h incubation, 25 µM): 93.16 ± 4.6% | viability of PBM cells relative to control (PBM cells; 2 h incubation, 50 µM): 79.21 ± 1.4% | viability of PBM cells relative to control (PBM cells; 2 h incubation, 100 µM): 78.49 ± 1.24% | viability of PBM cells relative to control (PBM cells; 2 h incubation, 250 µM): 75.23 ± 0.62% | IC50 (PBM cells; 24 h incubation): > 250 µM | viability of PBM cells relative to control (PBM cells; 24 h incubation, 0.5 µM): 105.37 ± 7.62% | viability of PBM cells relative to control (PBM cells; 24 h incubation, 1 µM): 101.81 ± 0.86% | viability of PBM cells relative to control (PBM cells; 24 h incubation, 2.5 µM): 97.1 ± 1.83% | viability of PBM cells relative to control (PBM cells; 24 h incubation, 5 µM): 94.2 ± 4.56% | viability of PBM cells relative to control (PBM cells; 24 h incubation, 10 µM): 94.94 ± 2.09% | viability of PBM cells relative to control (PBM cells; 24 h incubation, 25 µM): 88.93 ± 2.18% | viability of PBM cells relative to control (PBM cells; 24 h incubation, 50 µM): 85.34 ± 2.58% | viability of PBM cells relative to control (PBM cells; 24 h incubation, 100 µM): 83.38 ± 3.4% | viability of PBM cells relative to control (PBM cells; 24 h incubation, 250 µM): 77.59 ± 2.06% | viability of A549 cells relative to control (A549 cells [4]; 2 h incubation, 0.5 µM): 84.30 ± 11.24% | viability of A549 cells relative to control (A549 cells [4]; 2 h incubation, 1 µM): 80.74 ± 14% | viability of A549 cells relative to control (A549 cells [4]; 2 h incubation, 2.5 µM): 82.33 ± 9.73% | viability of A549 cells relative to control (A549 cells [4]; 2 h incubation, 5 µM): 83.32 ± 11.51% | viability of A549 cells relative to control (A549 cells [4]; 2 h incubation, 10 µM): 101.28 ± 15.65% | viability of A549 cells relative to control (A549 cells [4]; 2 h incubation, 25 µM): 114.98 ± 11.35% | viability of A549 cells relative to control (A549 cells [4]; 2 h incubation, 50 µM): 123.09 ± 7.89% | viability of A549 cells relative to control (A549 cells [4]; 2 h incubation, 100 µM): 84.95 ± 8.31% | viability of A549 cells relative to control (A549 cells [4]; 2 h incubation, 250 µM): 40.75 ± 4.24% | IC50 (A549 cells [4]; 24 h incubation): 73.5 µM | viability of A549 cells relative to control (A549 cells [4]; 24 h incubation, 0.5 µM): 81.57 ± 14.09% | viability of A549 cells relative to control (A549 cells [4]; 24 h incubation, 1 µM): 74.40 ± 19.47% | viability of A549 cells relative to control (A549 cells [4]; 24 h incubation, 2.5 µM): 73.54 ± 23.46% | viability of A549 cells relative to control (A549 cells [4]; 24 h incubation, 5 µM): 61.87 ± 14.65% | viability of A549 cells relative to control (A549 cells [4]; 24 h incubation, 10 µM): 87.91 ± 9.79% | viability of A549 cells relative to control (A549 cells [4]; 24 h incubation, 25 µM): 110.30 ± 11.49% | viability of A549 cells relative to control (A549 cells [4]; 24 h incubation, 50 µM): 91.31 ± 16.37% | viability of A549 cells relative to control (A549 cells [4]; 24 h incubation, 100 µM): 13.33 ± 3.51% | viability of A549 cells relative to control (A549 cells [4]; 24 h incubation, 250 µM): 1.39 ± 0.12% | viability of HL-60 cells relative to control (HL-60 cells [5]; 2 h incubation, 0.5 µM): 106.51 ± 2.33% | viability of HL-60 cells relative to control (HL-60 cells [5]; 2 h incubation, 1 µM): 106.74 ± 1.35% | viability of HL-60 cells relative to control (HL-60 cells [5]; 2 h incubation, 2.5 µM): 103.04 ± 1.98% | viability of HL-60 cells relative to control (HL-60 cells [5]; 2 h incubation, 5 µM): 104.72 ± 2.62% | viability of HL-60 cells relative to control (HL-60 cells [5]; 2 h incubation, 10 µM): 104.03 ± 2.08% | viability of HL-60 cells relative to control (HL-60 cells [5]; 2 h incubation, 25 µM): 95.86 ± 2.66% | viability of HL-60 cells relative to control (HL-60 cells [5]; 2 h incubation, 50 µM): 90.45 ± 0.98% | viability of HL-60 cells relative to control (HL-60 cells [5]; 2 h incubation, 100 µM): 76.15 ± 3.1% | viability of HL-60 cells relative to control (HL-60 cells [5]; 2 h incubation, 250 µM): 21.23 ± 1.56% | IC50 (HL-60 cells [5]; 24 h incubation): 10 µM | viability of HL-60 cells relative to control (HL-60 cells [5]; 24 h incubation, 0.5 µM): 107.57 ± 3.87% | viability of HL-60 cells relative to control (HL-60 cells [5]; 24 h incubation, 1 µM): 105.5 ± 3.13% | viability of HL-60 cells relative to control (HL-60 cells [5]; 24 h incubation, 2.5 µM): 97.63 ± 0.5% | viability of HL-60 cells relative to control (HL-60 cells [5]; 24 h incubation, 5 µM): 79.34 ± 1.21% | viability of HL-60 cells relative to control (HL-60 cells [5]; 24 h incubation, 10 µM): 51.6 ± 1.43% | viability of HL-60 cells relative to control (HL-60 cells [5]; 24 h incubation, 25 µM): 38.21 ± 0.22% | viability of HL-60 cells relative to control (HL-60 cells [5]; 24 h incubation, 50 µM): 35.8 ± 2.09% | viability of HL-60 cells relative to control (HL-60 cells [5]; 24 h incubation, 100 µM): 25.41 ± 1.92% | viability of HL-60 cells relative to control (HL-60 cells [5]; 24 h incubation, 250 µM): 17.52 ± 1.12%

Source: paper PMC10920834, “Synthesis, anticancer activity, and molecular docking of half-sandwich iron(II) cyclopentadienyl complexes with maleimide and phosphine or phosphite ligands” (Scientific Reports, 2024)
